Reference: patent EP0973746B1, “SUBSTITUTED 3-CYANO QUINOLINES” (Wyeth Holdings Corporation, priority 1997, dated 1998)
Values after ≈ are worked out from the molar mass of the structure shown. Values joined by “and” are separate entries in the source; they are usually repeats but may differ in a detail not shown here. Equal entries are not always repeated. Where two headings read alike, the source gives them in different places.

What was measured:
[1] = test system: A431; assay: Inhibition of cancer cell growth as measured by cell number, A431; format: cell-based, human; conditions: Homo sapiens, A-431, 48 h, Table 8;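 also: human A431 line, picked because it overexpresses epidermal growth factor receptor (EGFR)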
Text: (§1) The cell lines were chosen since they overexpressed epidermal growth factor receptor (EGFR) (i.e. A431) or HER2/neu (SKBR3), or had little to no expression of the these receptors (SW620, LOX, MCF7).

[2] = target: recombinant human MEK 1 (MAPKK) and recombinant human ERK2 (MAPK); assay: Mitogen Activated Protein Kinase (MAPK) assay, two component coupled MEK 1 / ERK2; format: biochemical; conditions: separate entries for the same compound = evaluated more than one time;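 also: MEK 1-activated ERK2 phosphorylates MBP or Myc peptide with 33P-ATP, filter capture and scintillation counting, inhibitor preincubated with ERK2 30 min at 0 °C, inhibition relative to uninhibited control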
[3] = test system: SW620; assay: Inhibition of cancer cell growth as measured by cell number, SW620; format: cell-based, human; conditions: for IC50: Homo sapiens, SW-620, 48 h;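 as to all read-outs here: SW620 was included as a cell line with little or no EGFR or HER2/neu expression, in contrast to receptor-overexpressing lines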
Text: as §1

[4] = target: T1, His-tagged cytoplasmic domain of EGFR (Homo sapiens, UniProt P00533); assay: Inhibition of Epidermal Growth Factor Receptor Kinase (EGF-R) using recombinant enzyme; format: biochemical; conditions: recombinant enzyme; RR-SRC peptide; average of the number of tests; read-out: IC50;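 also: radiometric kinase assay measuring radiolabeled phosphate transfer from ATP onto the peptide tyrosine by scintillation counting, control is reaction without compound, background subtracted, IC50 from dose-response curve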
T1 construct: containing the EGFR cDNA encoding amino acids 645 - 1186 preceded by Met-Ala-(His)6; made in house; host or cells: Sf9 cells, recombinant baculovirus vHcEGFR52
T1 sequence (P00533 669-1210): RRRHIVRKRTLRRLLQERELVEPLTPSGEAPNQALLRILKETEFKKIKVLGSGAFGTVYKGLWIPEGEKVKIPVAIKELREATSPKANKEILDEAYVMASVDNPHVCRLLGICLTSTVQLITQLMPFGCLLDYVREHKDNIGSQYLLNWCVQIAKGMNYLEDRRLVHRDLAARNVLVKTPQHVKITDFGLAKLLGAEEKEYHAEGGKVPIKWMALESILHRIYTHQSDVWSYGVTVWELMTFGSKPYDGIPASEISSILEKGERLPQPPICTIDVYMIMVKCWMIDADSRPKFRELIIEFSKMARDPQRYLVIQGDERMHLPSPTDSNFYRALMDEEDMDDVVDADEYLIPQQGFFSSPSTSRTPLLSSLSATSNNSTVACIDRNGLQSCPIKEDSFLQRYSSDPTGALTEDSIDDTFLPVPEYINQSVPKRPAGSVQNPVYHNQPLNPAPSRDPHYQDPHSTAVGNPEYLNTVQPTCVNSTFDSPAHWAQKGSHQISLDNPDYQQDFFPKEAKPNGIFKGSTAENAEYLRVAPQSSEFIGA

[5] = test system: human epidermoid tumors (A431); assay: In vivo inhibition of the growth of human epidermoid tumors (A431); conditions: Table 11; for S/T = No. Survivors/No. Treated: Day +28 post tumor staging
Procedure: Representative compounds of this invention (listed below) were evaluated in an in vivo standard pharmacological test procedure which measured its ability to inhibit the growth of human epidermoid tumors. […] BALB/c nu/nu female mice (Charles River, Wilmington, MA) were used in this in vivo standard pharmacological test procedure. A unit of 5 X 10^6 cells were injected SC into mice. When tumors attained a mass of between 100 and 150 mg, the mice were randomized into treatment groups (day zero). […] Control animals received no drug. Tumor mass was determined every 7 days [(length X width^2)/2] for 28 days post staging. Relative tumor growth (Mean tumor mass on days 7, 14, 21, and 28 divided by the mean tumor mass on day zero) is determined for each treatment group.

[6] = target: T2, Kinase insert Domain containing Receptor (KDR: the catalytic domain of the VEGF receptor) (Homo sapiens, UniProt P35968); assay: Inhibition of Kinase insert Domain containing Receptor (KDR); format: biochemical; conditions: pH 7.2, radioactive format; for IC50: read-out: KDR IC50 (converted);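 as to all read-outs here: KDR phosphorylating a Glu:Tyr 4:1 copolymer with P32- or P33-labelled ATP, Mg++ and vanadate, read as acid-insoluble radiolabel, compared with compound-free reaction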
T2 construct: KDR: the catalytic domain of the VEGF receptor
T2 sequence (P35968 834-1162 limits assumed): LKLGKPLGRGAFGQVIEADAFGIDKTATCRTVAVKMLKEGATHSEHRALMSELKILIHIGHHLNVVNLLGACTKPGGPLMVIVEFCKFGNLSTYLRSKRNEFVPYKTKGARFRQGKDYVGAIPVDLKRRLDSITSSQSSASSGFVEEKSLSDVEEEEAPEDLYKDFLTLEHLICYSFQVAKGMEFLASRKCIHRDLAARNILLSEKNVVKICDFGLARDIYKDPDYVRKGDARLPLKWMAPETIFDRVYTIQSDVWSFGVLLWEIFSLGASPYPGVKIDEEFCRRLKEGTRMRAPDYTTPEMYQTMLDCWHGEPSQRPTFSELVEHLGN
Procedure: In this standard pharmacological test procedure, KDR protein is mixed, in the presence or absence of a inhibitor compound, with a substrate peptide to be phosphorylated (a copolymer of glutamic acid and tyrosine, E:Y :: 4:1) and other cofactors such as Mg^++ and sodium vanadate (a protein tyrosine phosphatase inhibitor) in an appropriate buffer to maintain pH (7.2). ATP and a radioactive tracer (either P^32-or P^33- labeled ATP) is then add to initiate phosphorylation. After incubation, the radioactive phosphate associated with the acid-insoluble fraction of the assay mixture is then quantified as reflection of substrate phosphorylation.

[7] = test system: SKBR3; assay: Inhibition of cancer cell growth as measured by cell number, SKBR3; format: cell-based, human; conditions: Table 8; for IC50: Homo sapiens;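 as to all read-outs here: SK-BR-3 cells were selected as a line overexpressing HER2/neu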
Text: as §1

[8] = target: Epithelial Cell Kinase (ECK) (Homo sapiens, UniProt P29317); assay: biochemical
Chain of Epithelial Cell Kinase (ECK) (P29317 24-976, species assumed): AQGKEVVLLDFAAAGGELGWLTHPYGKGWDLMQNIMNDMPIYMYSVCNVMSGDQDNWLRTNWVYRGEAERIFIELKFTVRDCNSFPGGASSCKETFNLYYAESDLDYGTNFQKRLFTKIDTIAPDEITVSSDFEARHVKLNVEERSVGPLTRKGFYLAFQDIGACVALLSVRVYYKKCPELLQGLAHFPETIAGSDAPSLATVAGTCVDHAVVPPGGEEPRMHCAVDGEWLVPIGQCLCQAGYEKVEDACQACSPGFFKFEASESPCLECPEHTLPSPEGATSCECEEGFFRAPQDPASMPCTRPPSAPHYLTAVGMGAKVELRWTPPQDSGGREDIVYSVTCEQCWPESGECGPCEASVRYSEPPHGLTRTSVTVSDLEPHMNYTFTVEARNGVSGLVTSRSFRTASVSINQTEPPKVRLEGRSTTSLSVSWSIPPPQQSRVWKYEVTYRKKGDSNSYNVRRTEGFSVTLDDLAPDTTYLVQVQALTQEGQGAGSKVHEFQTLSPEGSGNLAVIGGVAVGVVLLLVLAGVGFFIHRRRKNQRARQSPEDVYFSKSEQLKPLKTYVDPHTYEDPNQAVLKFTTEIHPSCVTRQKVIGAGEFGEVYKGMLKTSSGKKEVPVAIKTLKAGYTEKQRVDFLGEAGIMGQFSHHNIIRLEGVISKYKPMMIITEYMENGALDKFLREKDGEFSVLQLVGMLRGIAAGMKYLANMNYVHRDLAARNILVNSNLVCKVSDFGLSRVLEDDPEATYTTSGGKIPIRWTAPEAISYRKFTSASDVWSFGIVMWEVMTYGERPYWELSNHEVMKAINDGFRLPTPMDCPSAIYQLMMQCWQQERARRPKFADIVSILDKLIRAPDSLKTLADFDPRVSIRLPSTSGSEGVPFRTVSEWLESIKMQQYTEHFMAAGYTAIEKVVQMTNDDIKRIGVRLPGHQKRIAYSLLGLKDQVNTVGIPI
Procedure: In this standard pharmacological test procedure, a biotinylated peptide substrate is first immobilized on neutravidin-coated microtiter plates. The test drug, the Epithelial Cell Kinase (ECK), Mg^++, sodium vanadate (a protein tyrosine phosphatase inhibitor), and an appropriate buffer to maintain pH (7.2) are then added to the immobilized substrate-containing microtiter wells. ATP is then added to initiate phosphorylation. After incubation, the assay plates are washed with a suitable buffer leaving behind phosphorylated peptide which is exposed to horse radish peroxidase (HRP)-conjugated anti-phosphotyrosine monoclonal antibody. The antibody-treated plates are washed again and the HRP activity in individual wells is quantified as a reflection of degree of substrate phosphorylation.

[9] = test system: LOX; assay: Inhibition of cancer cell growth as measured by cell number, LOX; format: cell-based, human; conditions: Homo sapiens, LOX, 48 h, read-out: IC50 LOX, cell number, Sulforhodamine B, 48 hours exposure; Table 8;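 also: LOX cells served as a line with low or absent EGFR and HER2/neu expression, in contrast to receptor-overexpressing lines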
Text: as §1

[10] = test system: MCF7; assay: Inhibition of cancer cell growth as measured by cell number, MCF7; format: cell-based, human; conditions: Homo sapiens, MCF7, 48 h, read-out: IC50 MCF7, cell number, Sulforhodamine B, 48 hours exposure; Table 8;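 also: MCF7 was included as a line with little or no EGFR or HER2/neu expression, in contrast to the receptor-overexpressing lines of the panel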
Text: as §1

[11] = read-out: IC50 A431, cell number, Sulforhodamine B, 48 hours exposure
[12] = read-out: IC50 SW620, cell number, Sulforhodamine B, 48 hours exposure, Table 8
[13] = 80 mg/kg/dose IP on days 1,5 and 9
[14] = 80 mg/kg/dose PO on days 1 through 10
[15] = SK-BR-3, 48 h, read-out: IC50 SKBR3, cell number, Sulforhodamine B, 48 hours exposure

| Molecule | IC50 [2] | IC50 [6] | IC50 [8] | also measured |
| --- | --- | --- | --- | --- |
| COc1cc2ncc(C#N)c(Nc3ccc(F)c(Br)c3)c2cc1NC(=O)C=CCN(C)C [Example 208, 4-Dimethylamino-but-2-enoic acid [4-(3-bromo-4-fluorophenylamino)-3-cyano-7-methoxy-quinolin-6-yl]-amide] | 13 µM | 20.1 µM |  | IC50 [1, 11]: 0.067 µg/mL (≈ 0.134 µM); IC50 [3, 12]: 0.453 µg/mL (≈ 0.909 µM); IC50 [4]: 0.0015 µM; %T/C Day 7 [5, 13]: 14%; %T/C Day 14 [5, 13]: 15%; %T/C Day 21 [5, 13]: 26%; %T/C Day 28 [5, 13]: 32%; S/T = No. Survivors/No. Treated [5, 13]: 5/5; %T/C Day 7 [5, 14]: 6%; %T/C Day 14 [5, 14]: 6%; %T/C Day 21 [5, 14]: 8%; %T/C Day 28 [5, 14]: 10%; S/T = No. Survivors/No. Treated [5, 14]: 5/5; IC50 [7, 15]: 0.038 µg/mL (≈ 0.0763 µM) |
| COc1ccc2ncc(C#N)c(Nc3ccc(Cl)cc3F)c2c1 [Example 283, 4-(4-Chloro-2-fluoro-phenylamino)-6-methoxy-quinoline-3-carbonitrile] | > 100 µM |  | 9.15 µM |  |
| N#Cc1cnc2ccc(NC(=O)C=CCN3CCOCC3)cc2c1Nc1ccc(F)c(Cl)c1 [Example 147, N-{4-[(3-Chloro-4-fluorophenyl)amino]-3-cyano-6-quinolinyl} -4-morpholino-2-butenamide] | 80 µM |  | 43.1 µM |  |
| COc1cc2c(Nc3ccc(Cl)cc3F)c(C#N)cnc2cc1OCCCN1CCOCC1 [Example 81, 4-(4-Chloro-2-fluoro-phenylamino)-6-methoxy-7-(3-morpholin-4-yl-propoxy)-quinoline-3-carbonitrile] | 0.1 µM |  | 0.425 µM |  |
| COc1cc2ncc(C#N)c(Nc3ccc(O)c(Cl)c3)c2cc1OC [Example 249, 4-(3-Chloro-4-hydroxy-phenylamino)-6,7-dimethoxy-quinoline-3-carbonitrile] | 15 µM | > 28.1 µM |  |  |
| N#Cc1cnc2cc3c(cc2c1Nc1cccc(Br)c1)OCO3 [Example 40, 8-[(3-Bromophenyl)amino]-[1,3]-dioxolo[4,5-g]quinoline-7-carbonitrile] | > 100 µM |  | 27.2 µM |  |
| C=CC(=O)Nc1ccc2ncc(C#N)c(Nc3ccc(F)c(F)c3)c2c1 [Example 154, N-{3-Cyano-4-[(3,4-difluorophenyl)amino]-6-quinolinyl]-2-propenamide] | 20 µM | > 85.6 µM |  | IC50 [9]: 0.44 µg/mL (≈ 1.26 µM); IC50 [1, 11]: 0.07 µg/mL (≈ 0.2 µM); IC50 [3, 12]: 0.55 µg/mL (≈ 1.57 µM); IC50 [10]: 2.57 µg/mL (≈ 7.34 µM); IC50 [4]: 0.15 µM; IC50 [7, 15]: 0.05 µg/mL (≈ 0.143 µM) |
| COc1cccc2c(Nc3ccc(Br)c(O)c3)c(C#N)cnc12 [Example 278, 4-(4-Bromo-3-hydroxy-phenylamino)-8-methoxy-quinoline-3-carbonitrile] | > 100 µM | > 81 µM |  |  |
| CN1CCN(CC#CC(=O)Nc2ccc3ncc(C#N)c(Nc4cccc(Br)c4)c3c2)CC1 [Example 190, N-[4-[(3-Bromophenyl)amino]-3-cyano-6-quinolinyl]-4-(N-methylpiperazino)-2-butynamide] |  |  | 39.7 µM |  |
| COc1cc2ncc(C#N)c(Nc3ccc(C)c(O)c3)c2cc1OC [Example 229, 4-(3-Hydroxy-4-methyl-phenylamino)-6,7-dimethoxy-quinoline-3-carbonitrile] | < 1 µM | 0.596 µM |  | IC50 ([1]; cell number, Sulforhodamine B, 48 hours exposure, read-out: IC50 A431): 0.469 µg/mL (≈ 1.4 µM); IC50 ([3]; cell number, Sulforhodamine B, 48 hours exposure, Table 8, read-out: IC50 SW620): > 5 µg/mL; IC50 ([7]; SK-BR-3, cell number, Sulforhodamine B, 48 hours exposure, read-out: IC50 SKBR3): > 5 µg/mL |
| COc1ccc(OC)c2c(Nc3cccc(N(C)C)c3)c(C#N)cnc12 [Example 242, 4-(3-Dimethylamino-phenylamino)-5,8-dimethoxy-quinoline-3-carbonitrile] | 10 µM | > 86.1 µM |  |  |
| COc1cccc2c(Nc3ccc(Cl)cc3F)c(C#N)cnc12 [Example 275, 4-(4-Chloro-2-fluoro-phenylamino)-8-methoxy-quinoline-3-carbonitrile] | > 100 µM | > 91.5 µM |  |  |
| N#Cc1cnc2ccc(NC(=O)C=CCN3CCOCC3)cc2c1Nc1ccc(F)c(Br)c1 [Example 174, N-{4-[(3-Bromo-4-fluorophenyl)amino]-3-cyano-6-quinolinyl] -4-morpholino-2-butenamide] | 2.5 µM |  | 39.2 µM | IC50 ([3]; read-out: IC50 SW620): > 5 µg/mL |
| COc1cc2c(Nc3cc(O)c(Cl)cc3F)c(C#N)cnc2cc1OCCN(C)C [Example 86, 4-(4-Chloro-2-fluoro-5-hydroxy-phenylamino)-7-(2-dimethylamino-ethoxy)-6-methoxy-quinoline-3-carbonitrile] | 1.8 µM and 2 µM | 6.96 µM |  |  |
| COc1ccc(Nc2c(C#N)cnc3c(OC)cccc23)cc1O [Example 279, 4-(3-Hydroxy-4-methoxy-phenylamino)-8-methoxy-quinoline-3-carbonitrile] | > 100 µM | > 93.4 µM |  |  |
| 4-(4-Chloro-2-fluoro-phenylamino)-5,8-dimethoxy-quinoline-3-carbonitrile [Example 238] | > 100 µM |  |  | KDR IC50 [6]: >30 µg/mL |
| COc1cc2ncc(C#N)c(Nc3cc(Cl)ccc3O)c2cc1OC [Example 290, 4-(5-Chloro-2-hydroxy-phenylamino)-6,7-dimethoxy-quinoline-3-carbonitrile] | 3 µM | 28.1 µM |  |  |
| CCOc1cc2ncc(C#N)c(Nc3cccc(Br)c3)c2cc1NC(=O)C=CCN1CCOCC1 [Example 218, 4-Morpholin-4-yl-but-2-enoic acid [4-(3-bromo-phenylamino)-3-cyano-7-ethoxy-quinolin-6-yl]-amide] |  | > 55.9 µM |  | IC50 [3, 12]: 1.85 µg/mL (≈ 3.46 µM); IC50 SW620 ([3]; cell number, Sulforhodamine B, 48 hours exposure, Table 8): 1.235 µg/mL (≈ 2.3 µM); IC50 [7, 15]: 0.029 µg/mL (≈ 0.0541 µM); IC50 SKBR3 ([7]; cell number, Sulforhodamine B, 48 hours exposure): 0.047 µg/mL (≈ 0.0876 µM) |
| COc1cc2ncc(C#N)c(Nc3ccccc3SC)c2cc1OC [Example 250, 6,7-Dimethoxy-4-(2-methylsulfanyl-phenylamino)-quinoline-3-carbonitrile] | 10 µM | > 28.5 µM |  |  |
| N#Cc1cnc2ccc(NC(=O)CCl)cc2c1Nc1cccc(Br)c1 [Example 19, N-[4-[(3-Bromophenyl)amino]-3-cyano-6-quinolinyl]-2-chloroacetamide] | 29 µM |  | 24.1 µM |  |
| N#Cc1cnc2cc(O)c(O)cc2c1Nc1cccc(Br)c1 [Example 39, 4-[(3-Bromophenyl)amino]-6,7-dihydroxy-3-quinolinecarbonitrile] | 40 µM |  | 28.1 µM |  |
| COc1cccc2c(Nc3cccc(N(C)C)c3)c(C#N)cnc12 [Example 277, 4-(3-Dimethylamino-phenylamino)-8-methoxy-quinoline-3-carbonitrile] | > 100 µM | > 94.2 µM |  |  |
| COc1cc2ncc(C#N)c(Nc3cc(C)ccc3O)c2cc1OC [Example 295, 4-(2-Hydroxy-5-methyl-phenylamino)-6,7-dimethoxy-quinoline-3-carbonitrile] | 50 µM | 29.8 µM |  |  |
| COc1ccc2ncc(C#N)c(Nc3ccc(C)c(O)c3)c2c1 [Example 284, 4-(3-Hydroxy-4-methyl-phenylamino)-6-methoxy-quinoline-3-carbonitrile] | 4 µM |  | 32.8 µM |  |
| COc1ccc(OC)c2c(Nc3cccc(Br)c3)c(C#N)cnc12 [Example 240, 4-(3-Bromo-phenylamino)-5.8-dimethoxy-quinoline-3-carbonitrile] | 10 µM | > 78.1 µM |  |  |
| COc1cc2c(Nc3ccc(Cl)cc3F)c(C#N)cnc2c(OC)c1OC [Example 234, 4-(4-Chloro-2-fluoro-phenylamino)-6,7,8-trimethoxy-quinoline-3-carbonitrile] | > 100 µM | > 77.4 µM |  |  |
| COc1ccc2c(Nc3cccc(Br)c3)c(C#N)cnc2c1 [Example 3, 4-[(3-Bromophenyl)amino]-7-methoxy-3-guinolinecarbonitrile] | > 100 µM |  | 28.2 µM |  |
